Results reported in patent US20160192641A1, “STABLE EMULSION FORMULATION HINDERING INTERACTION ACROSS THE WATER-OIL INTERFACE” (Dow AgroSciences LLC, priority 2007, published 2016).

Excerpt: For a given oil phase which is often designed to meet specific market, customer, or application needs, actives or other components in aqueous phase can form and grow large crystals in oil phase due to high solubilities and Oswald Ripening, and result in emulsion destabilization.

Compound | solubility in methyl soyate [% by wt] | solubilities in acetochlor [ppm]
O=C(Nc1ccc(F)cc1F)c1cccnc1Oc1cccc(C(F)(F)F)c1 [diflufenican] | > 1 | 
COc1cnc(OC)n2nc(NS(=O)(=O)c3c(OCC(F)F)cccc3C(F)(F)F)nc12 [penoxsulam] |  | > 1000
